Here are results for one compound from patent publication US20090291877A1, “TREATMENTS USING CITRULLINE” (priority 2006, published 2009).

Data set [1] is described as follows: Plasma nitrotyrosine during 72-h intravenous infusion in ICU patients with severe sepsis/septic shock. The settings on record: 72-h i.v. infusion, compared with placebo. The format is in vivo, human. The procedure: (§1) Methods: According to a placebo-controlled double-blind study design, ICU patients with severe sepsis/septic shock (<48 h; APACHE II scores between 18-41) were randomized in a group treated with intravenous 72-h L-arginine-HCl (1.2 μmol/kg·min, n=9) or isocaloric L-alanine (placebo; n=9). All patients were treated with norepinephrine in a range between […] at the start of study. Haemodynamics were recorded at 2-h intervals throughout the protocol. Blood was sampled at baseline and at 24-h intervals and analysed for plasma nitrotyrosine levels. Repeated measurements ANOVA was used; data are means±SEM.

Data set [2] can be described thus: Haemodynamics (MAP, systemic blood pressure, norepinephrine dose) during 72-h intravenous infusion in ICU patients with severe sepsis/septic shock. As to conditions: for MAP: i.v. L-arginine-HCl 1.2 μmol/kg·min, mean ± SEM. The format is in vivo, human. The procedure: as §1
The conditions of data set [3]: hemodialysis patients, pre versus post dialysis run; cited from earlier work.

Consider `Cl.N=C(N)NCCC[C@H](N)C(=O)O` [ARG, L-arginine-HCl], for which the “Plasma nitrotyrosine (oxidative effect on plasma proteins), arginine versus placebo” value was “does not enhance” in data set [1] (listed as Arginine) and “did not differ” in data set [1] (listed as arginine). Also, the “Norepinephrine dose, arginine versus placebo” value in data set [2] (72-h i.v. infusion, compared with placebo) was “No significant differences”. Also, the “Systemic blood pressure, arginine versus placebo” value in data set [2] (72-h i.v. infusion, compared with placebo, listed as Arginine) is “does not affect”; in data set [2] (72-h i.v. infusion, compared with placebo, listed as arginine) it was “No significant differences”. The MAP was 81 ± 3 mmHg in data set [2] (24 h), 85 ± 4 mmHg in data set [2] (48 h), 84 ± 5 mmHg in data set [2] (72 h) and 82 ± 4 mmHg in data set [2] (Baseline). Moreover, the “Decrease of level during dialysis treatment” value in data set [3] is 36%.
